Laboratory results from US6399583B1, “Hybrid anthracyclines from genetically engineered streptomyces galilaeus strains, process for production and uses thereof” (Galilaeus Oy, priority 1998, dated 2002).
Like-named read-outs stand apart in the source and are kept apart here.

Key:
[1] = system: MES-SA human uterine sarcoma cells; assay: Cytotoxicity assay, luminescence ATP detection, MES-SA; format: cell-based; conditions: three days incubation, ATP content, highest concentration 10^-5 M, read-out: ED50 (nM) MES-SA
Method: (§1) The cytotoxicities of the new anthracyclines were tested in vitro with two cell lines: human uterine sarcomas MES-SA (CRL-1976; American Type Culture Collection (ATCC), Rockville, Md., USA) and MES-SA/D×5 (CRL-1977; ATCC, Rockville, Md., USA). MES-SA/D×5 has been developed by growing MES-SA cells in increasing concentrations of doxorubicin (Harker and Sikic, 1985).
(§2) Monolayer cultures were grown in McCoy's 5A medium with L-glutamine (Gibco BRL) supplemented with 10% FBS (Foetal Bovine Serum, Gibco BRL). No antibiotics were added. As the resistance is stable for at least 20 passages, the MES-SA/D×5 cells were grown without anthracycline selection (Harker and Sikic, 1985). Cells were maintained at 37° C. with 5% CO2 and subcultured every 3-5 days.
(§3) The cytotoxicity tests were performed in 96-well microtiter plates (sterile white plates with clear bottom, Corning Costar Corporation, Cambridge, Mass., USA). The anthracyclines were pipetted into the plates in 10 μl of ethanol, pure ethanol was used for control plates. Daunorubicin and aclarubicin were used as positive controls. When the ethanol had evaporated, the cells were seeded into the plates in 100 μl of appropriate medium. The number of cells seeded per well was 2500 with MES-SA, 3000 with MES-SA/D×5, 3000 with LL/2, 2000 with B16-F0 and B16-F1, 2000 with KLN-205 and 8000 with MLTC-1. The ATP content of the cells was measured after incubating the cells for three days at 37° C. with 5% CO2.
(§4) The growth medium was removed by turning the plates over, and 200 μl of ATP extraction reagent, Somalyze, were added to the wells. The plates were then incubated for 30 minutes at room temperature. The ATP measurement was performed with Luminoskan luminometer (Labsystems Oy, Helsinki, Finland) at 22° C. 20 μl of ATP monitoring reagent containing luciferin and luciferase was dispensed, and an integral measurement of 10 s with 2 s lag time was performed for each well. All reagents used were supplied by Bio-Orbit Oy, Turku, Finland.
(§5) The direct luminometer output (in relative light units, RLUS) was used to calculate the cytotoxic effect. This light signal is directly proportional to the amount of […] in a wide range (determined with Bio-Orbit ATP standard, data not shown). On the other hand, the amount of ATP is directly proportional to the amount of living cells (Kangas et al., 1984). The results are expressed as percentages of the control value of untreated cells. An IC50 value (the drug concentration resulting to an ATP signal of 50% of the untreated control signal) was graphically estimated from the % of control vs. drug concentration plot.

[2] = system: MES-SA/D×5 uterine sarcoma cells (doxorubicin-resistant, MDR); assay: Cytotoxicity assay, luminescence ATP detection, MES-SA/D×5; format: cell-based, human; conditions: MES-SA/D×5 cells, three days incubation, ATP content, highest concentration 10^-5 M, read-out: ED50 (nM) MES-SA/D × 5
Method: as §1, §2, §3, §4, §5

B16-F0 melanoma = assay: Cytotoxicity assay, ATP detection, B16-F0; format: cell-based, mouse; conditions: B16-F0 cells in vitro, read-out: ED50 B16-F0
Method: as §3, §4, §5
H075-4a was also tested with several mouse cell lines in vitro (all were purchased from ATCC, Rockville, Md., USA): Lewis lung carcinoma (LL/2) (CRL-1642), B16-F0 melanoma (CRL-6322), B16-F1 melanoma (CRL-6323), KLN-205 lung squamous cell carcinoma (CRL-1453) and MLTC-1 leydig cell tumor (CRL-2065) using daunomycin, aclarubicin and H075-1a (MA 144U1) as references.
All cells grew as monolayers and were cultured at 37° C. with 5% CO2 according to ATCC standard instructions for each cell line: LL/2 in Dulbecco's modified Eagle's medium with 4.5 g/l glucose and 10% FCS, B16-F0 and B16-F1 in MEM (Eagle) in Earle's BSS with non-essential amino acids and 10% FCS, KLN-205 in MEM (Eagle) in Earle's BSS with non-essential amino acids and 10% FCS, MLTC-1 in RPMI 1640 with 25 mM HEPES and 10% FBS. All media were purchased from Gibco BRL, the serum was Gibco BRL Foetal Bovine Serum. […]

| SMILES | EC50 [1] [nM] | EC50 [2] [nM] | EC50 (B16-F0 melanoma) [µM] | EC50 ([1]; Homo sapiens, 72 h) [nM] | EC50 ([2]; Homo sapiens, 72 h) [nM] | EC50 (B16-F0 melanoma; Mus musculus, B16F0) [µM] |
| --- | --- | --- | --- | --- | --- | --- |
| CCC1(O)CC(OC2CC(N(C)C)C(OC3CC(O)C(OC4CC(O)C(O)C(C)O4)C(C)O3)C(C)O2)c2c(O)c3c(c(O)c2C1C(=O)OC)C(=O)c1cccc(O)c1C3=O (stereo not drawn) [Compound H075-4a] | 1 | 50 | 0.002 | – | – | – |
| COc1cccc2c1C(=O)c1c(O)c3c(c(O)c1C2=O)C[C@@](O)(C(C)=O)C[C@@H]3O[C@H]1C[C@H](N)[C@H](O)[C@H](C)O1 [Daunorubicin] | – | – | – | 8 | 220 | 0.02 |
